Measured values: US20110021532A1, “NOVEL SUBSTITUTED HETEROAROMATIC COMPOUNDS AS INHIBITORS OF STEAROYL-COENZYME A DELTA-9 DESATURASE” (Merck Frosst Canada Ltd., priority 2008, published 2011)

Target: T1, human SCD1 (hSCD-1) (Homo sapiens, UniProt O00767)
T1 construct: made in house; host or cells: baculovirus/Sf9
T1 sequence (O00767 1-359): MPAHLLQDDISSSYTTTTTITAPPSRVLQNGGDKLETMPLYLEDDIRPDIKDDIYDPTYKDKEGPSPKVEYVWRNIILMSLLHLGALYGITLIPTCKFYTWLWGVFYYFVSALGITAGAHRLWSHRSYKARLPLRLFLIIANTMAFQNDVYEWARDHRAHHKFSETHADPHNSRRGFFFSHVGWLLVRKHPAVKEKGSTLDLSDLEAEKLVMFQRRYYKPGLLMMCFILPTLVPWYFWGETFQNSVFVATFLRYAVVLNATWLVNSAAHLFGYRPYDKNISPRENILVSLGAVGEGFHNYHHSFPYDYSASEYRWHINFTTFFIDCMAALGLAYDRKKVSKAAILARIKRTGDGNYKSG
Test: SCD enzyme activity assay, reconstituted human SCD1 (hSCD-1)
Assay type: biochemical
Conditions: human SCD1, conversion of [3H]-stearoyl-CoA
Description: The potency of compounds of formula I against the stearoyl-CoA desaturase was determined by measuring the conversion of radiolabeled stearoyl-CoA to oleoyl-CoA using rat liver microsome or human SCD1 (hSCD-1) following previously published procedures with some modifications (Joshi, et al., J. Lipid Res., 18: 32-36 (1977); Talmo, et al., Anal. Biochem, 29: 300-304 (1969)). Liver microsome was prepared from male Wistar or Sprague Dawley rats on a high carbohydrate diet for 3 days (LabDiet #5803, Purina). The livers were homogenized (1:10 w/v) in a buffer containing 250 mM sucrose, 1 mM EDTA, 5 mM DTT and 50 mM Tris-HCl (pH 7.5). After a 100,000×g centrifugation for 60 min, the liver microsome pellet was suspended in a buffer containing 100 mM sodium phosphate, 20% glycerol, 2 mM DTT, and stored at −78° C. Human SCD1 desaturase system was reconstituted using human SCD1 from a baculovirus/Sf9 expression system, cytochrome B5 and cytochrome B5 reductase. Typically, test compound in 2 μL DMSO was incubated for 15 min at room temperature with 180 μL of the SCD enzyme in a buffer containing 100 mM Tris-HCl (pH 7.5), ATP (5 mM), Coenzyme-A (0.1 mM), Triton X-100 (0.5 mM) and NADH (2 mM). The reaction was initiated by the addition of 20 μL of [^3H]-stearoyl-CoA (final concentration=2 μM, radioactivity concentration=1 μCi/mL). After 10 min, the reaction mixture (80 μL) was mixed with a calcium chloride/charcoal aqueous suspension (100 μL charcoal (10% w/v) plus 25 μL CaCl2 (2N). After centrifugation to precipitate the radioactive fatty acid species, tritiated water released from 9,10-[^3H]-stearoyl-CoA by the SCD enzyme was quantified on a scintillation counter.

SMILES | IC50 [µM]
CS(=O)(=O)c1cnc2[nH]c(-c3ccc(-c4ccccc4F)cc3)nc2c1 | 0.113
CS(=O)(=O)c1ccc2[nH]c(-c3ccc(-c4cccs4)cc3)nc2c1 | 0.231
CS(=O)(=O)c1ccc2nc(-c3ccc(-c4ccccc4F)nc3)[nH]c2c1 | 0.027

Compounds with a lower IC50, results first:

IC50 [µM] | SMILES
0.013 | CS(=O)(=O)c1ccn2cc(-c3ccc(-c4cccc(Cl)c4)cc3)nc2c1
0.026 | CS(=O)(=O)c1ccc2nc(-c3ccc(-c4cccc(F)c4)cc3)[nH]c2c1
